One experiment concerns the target T1, mTAS1R2-WT/mTAS1R3-WT (Mus musculus, UniProt Q925D8+Q925I4).
T1 construct: expressed in transfected cells; host or cells: HEK293T-Gα16gust44
T1 sequence (Q925I4 20-843): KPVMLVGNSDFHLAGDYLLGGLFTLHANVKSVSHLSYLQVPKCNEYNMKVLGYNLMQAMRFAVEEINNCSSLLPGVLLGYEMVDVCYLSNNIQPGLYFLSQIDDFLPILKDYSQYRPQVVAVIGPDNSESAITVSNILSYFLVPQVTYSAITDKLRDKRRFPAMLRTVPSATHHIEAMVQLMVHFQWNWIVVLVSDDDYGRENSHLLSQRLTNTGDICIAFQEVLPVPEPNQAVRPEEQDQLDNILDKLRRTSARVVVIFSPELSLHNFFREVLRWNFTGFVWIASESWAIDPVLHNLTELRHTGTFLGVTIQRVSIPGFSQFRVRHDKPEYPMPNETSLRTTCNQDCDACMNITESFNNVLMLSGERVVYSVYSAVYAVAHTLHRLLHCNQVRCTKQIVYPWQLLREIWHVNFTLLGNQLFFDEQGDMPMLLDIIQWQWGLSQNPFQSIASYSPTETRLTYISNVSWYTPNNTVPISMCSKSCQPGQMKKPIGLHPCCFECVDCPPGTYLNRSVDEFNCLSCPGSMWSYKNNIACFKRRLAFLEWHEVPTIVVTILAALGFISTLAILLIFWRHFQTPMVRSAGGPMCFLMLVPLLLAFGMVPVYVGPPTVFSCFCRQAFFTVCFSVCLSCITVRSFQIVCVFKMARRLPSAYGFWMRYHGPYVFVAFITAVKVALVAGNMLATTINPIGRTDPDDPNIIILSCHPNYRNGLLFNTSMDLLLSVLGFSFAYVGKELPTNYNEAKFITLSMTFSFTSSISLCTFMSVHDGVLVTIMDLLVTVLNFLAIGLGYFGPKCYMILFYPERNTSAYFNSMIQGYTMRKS
T1 sequence (Q925D8 21-858): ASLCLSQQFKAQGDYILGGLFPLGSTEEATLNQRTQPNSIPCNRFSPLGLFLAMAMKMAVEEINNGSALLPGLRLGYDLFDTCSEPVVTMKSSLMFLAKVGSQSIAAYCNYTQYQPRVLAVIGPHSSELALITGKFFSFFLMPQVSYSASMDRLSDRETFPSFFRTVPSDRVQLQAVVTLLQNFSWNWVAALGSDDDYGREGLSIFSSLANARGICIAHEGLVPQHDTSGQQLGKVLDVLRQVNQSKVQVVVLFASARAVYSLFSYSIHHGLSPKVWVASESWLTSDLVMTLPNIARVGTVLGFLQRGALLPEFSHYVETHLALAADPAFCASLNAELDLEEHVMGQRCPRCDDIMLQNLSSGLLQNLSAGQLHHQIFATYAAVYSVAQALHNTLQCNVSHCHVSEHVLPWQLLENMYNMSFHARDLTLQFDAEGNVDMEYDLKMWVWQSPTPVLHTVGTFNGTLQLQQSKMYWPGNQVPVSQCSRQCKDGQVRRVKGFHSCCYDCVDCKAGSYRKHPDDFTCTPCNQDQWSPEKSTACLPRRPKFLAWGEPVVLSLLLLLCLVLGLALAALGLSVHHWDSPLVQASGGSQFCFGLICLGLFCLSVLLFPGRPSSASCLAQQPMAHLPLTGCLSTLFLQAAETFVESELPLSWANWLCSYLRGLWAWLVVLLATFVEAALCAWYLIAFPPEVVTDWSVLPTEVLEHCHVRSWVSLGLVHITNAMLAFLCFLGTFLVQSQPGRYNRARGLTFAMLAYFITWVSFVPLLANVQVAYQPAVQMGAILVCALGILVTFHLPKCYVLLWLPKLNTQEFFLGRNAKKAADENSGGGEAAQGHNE
The experiment is described as follows: Calcium mobilisation assay, HEK293T-Gα16gust44 cells, mouse sweet taste receptor WT. It counts as cell-based. The conditions noted are these: mTAS1R2-WT + mTAS1R3-WT; "-": no activation. The protocol:
(§1) The HEK293T cells were kindly provided by Jay P. Slack (Givaudan Flavors Corporation; Cincinnati, OH, USA). HEK293T cells stably transfected with Gα16gust44 [43, 67] were seeded in poly-D-lysine-coated clear-bottom black 96-well plates (0.35 × 10^5 cells/well) in high-glucose DMEM supplemented with 2 mM GlutaMAX, 10% dialysed foetal bovine serum with penicillin/streptomycin and G418 (400 μg/mL) at 37 °C and 6.3% CO2 in a humidified atmosphere as previously reported. […] As a negative control, HEK293T cells were mock-transfected with the empty expression vector. After a further 24 h of incubation, the HEK293T cells were washed with C1 buffer (130 mM NaCl, 5 mM KCl, 10 mM HEPES pH 7.4 and 2 mM CaCl2). The 96-well plates containing the cells were then stimulated with sweet-tasting compounds. […] Different concentration ranges were tested depending on the sweet compound injected. The Ca^2+ changes were expressed as fractional changes in fluorescent light intensity: ΔF/F = (F − F0)/F0, where F was the fluorescent light intensity at each point, and F0 was the value of emitted fluorescent light prior to stimulus application. To calculate dose–response relationships, the changes in fluorescence upon stimulus application were averaged, mock-subtracted and baseline-corrected. The dose–response data obtained were adjusted using a 4-parameter logistic equation. The half-maximal effective concentrations (EC50 values) and maximal signal amplitudes were calculated using SigmaPlot software (version 15.0) (Systat Software; San Jose, CA, USA).
(§2) HEK293T-Gα16gust44 cells were transiently cotransfected with pcDNA6-MAX-mTAS1R2-FLAG, pcDNA4-MAX-mTAS1R3-WT-FLAG or pcDNA4-MAX-mTAS1R3-I60T-FLAG, and pCMV-GCaMP5G as previously described in detail. After 24 h, the cells were washed with C1 buffer and stimulated with a logarithmically increasing range of sweetener concentrations. Calcium responses during automated application were monitored using a FlexStation®3 Multi-Mode microplate reader. The dose–response curves, EC50 values and maximal signal amplitudes were calculated as previously described.
(§3) For in vitro calcium mobilisation assay performed on hTAS1R2-SNPs, hTAS1R3-SNPs and mTAS1R3-I60T, 6 to 7 concentrations were tested for each sweet compound, plus buffer alone. All concentration–receptor combinations were measured in duplicate, and each experiment was repeated at least 4 times (8 wells/concentration). Results were expressed for each concentration as ΔF/F mean ± SEM and represented as dose–response curves.

The next experiment deals with T2, mTAS1R2-WT/mTAS1R3-I60T (Mus musculus, UniProt Q925D8+Q925I4, I60T).
T2 construct: expressed in transfected cells; host or cells: HEK293T-Gα16gust44
T2 sequence (Q925I4 20-843): T1 sequence (Q925I4 20-843)
T2 sequence (Q925D8 21-858 I60T): T1 sequence (Q925D8 21-858) with I40T
Nature of the experiment: Calcium mobilisation assay, HEK293T-Gα16gust44 cells, mouse TAS1R3-I60T variant. To be noted: mTAS1R2-WT + mTAS1R3-I60T; "-": no activation. Type of experiment: cell-based. The procedure: as §1, §2, §3

Where a chain is given by its changes, count along the chain named.

For the compound `O=C1NS(=O)(=O)c2ccccc21` [Saccharin, saccharin], the concentration for a half-maximal effect (EC50) at mTAS1R2-WT/mTAS1R3-WT amounted to 1520 ± 17 µM; at mTAS1R2-WT/mTAS1R3-I60T it was 2540 ± 61 µM.

For the origin of these results see article PMC11945486, “TAS1R2/TAS1R3 Single-Nucleotide Polymorphisms Affect Sweet Taste Receptor Activation by Sweeteners: The SWEET Project” (Nutrients, 2025).
